Data taken from US20130096119A1, “Isoquinolin-3-Ylurea Derivatives” (priority 2010, published 2013).
In brackets after ≈: the same amount, converted by molar mass.

Test system: S. pneumoniae ATCC 49619
Experiment: Minimal inhibitory concentration (MIC) by microdilution method (CLSI M7-A7)
Type: cell-based, Streptococcus pneumoniae
Details: for MIC: Streptococcus pneumoniae, ATCC49619, cation-adjusted Mueller-Hinton Broth supplemented with 3% (v/v) lysed horse blood
How it was run: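 Broth microdilution per CLSI M7-A7 in cation-adjusted Mueller-Hinton broth, supplemented with 3% (v/v) lysed horse blood for S. pneumoniae; MIC reported in mg/l.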

Row | SMILES | MIC | MIC for S. pneumoniae ATCC 49619 (cation-adjusted Mueller-Hinton Broth supplemented with 3% (v/v) lysed horse blood)
1 | CCNC(=O)Nc1cc2c(F)c(NCc3ccccc3)cc(Cl)c2cn1 [Example 49, 1-(6-benzylamino-8-chloro-5-fluoro-isoquinolin-3-yl)-3-ethyl-urea] | 2 µg/mL (≈ 5.36 µM) | 
2 | CCNC(=O)Nc1cc2c(CCC(N)=O)ccc(C)c2cn1 [Example 59, 3-[3-(3-ethyl-ureido)-8-methyl-isoquinolin-5-yl]-propionamide] | 4 µg/mL (≈ 13.3 µM) | 
3 | CCNC(=O)Nc1cc2c(Br)ccc(C)c2cn1 [Example 1, 1-(5-bromo-8-methyl-isoquinolin-3-yl)-3-ethyl-urea] | 1 µg/mL (≈ 3.24 µM) | 
4 | CCNC(=O)Nc1cc2cc(-c3cccc(C#N)c3)cc(C)c2cn1 [Example 107, 1-[6-(3-cyano-phenyl)-8-methyl-isoquinolin-3-yl]-3-ethyl-urea] | 1 µg/mL (≈ 3.03 µM) | 
5 | CCNC(=O)Nc1cc2cccc(Cn3cc(C)cn3)c2cn1 [Example 300, 1-ethyl-3-[8-(4-methyl-pyrazol-1-ylmethyl)-isoquinolin-3-yl]-urea] | 4 µg/mL (≈ 12.9 µM) | 
6 | CCNC(=O)Nc1cc2c(F)c(-c3cccnc3)cc(-c3ccc(C(=O)O)cc3)c2cn1 [Example 33, 4-[3-(3-ethyl-ureido)-5-fluoro-6-pyridin-3-yl-isoquinolin-8-yl]-benzoic acid] | 1 µg/mL (≈ 2.32 µM) | 
7 | CCNC(=O)Nc1cc2c(F)c(-c3cnc4ccccc4c3)cc(-c3cnc4ccccc4c3)c2cn1 [Example 112, 1-ethyl-3-(5-fluoro-6,8-di-quinolin-3-yl-isoquinolin-3-yl)-urea] | 0.5 µg/mL (≈ 1.03 µM) | 
8 | CCNC(=O)Nc1cc2cccc(Nc3cccc(CC(=O)N(C)C)c3)c2cn1.Cl [Example 211, 2-{3-[3-(3-ethyl-ureido)-isoquinolin-8-ylamino]phenyl}-N,N-dimethyl-acetamide hydrochloride] | 4 µg/mL | 
9 | CCNC(=O)Nc1cc2cccc(Nc3cccc(S(N)(=O)=O)c3)c2cn1 [Example 171, 3-[3-(3-ethyl-ureido)-isoquinolin-8-ylamino]-benzenesulfonamide] | 2 µg/mL (≈ 5.19 µM) | 
10 | CCNC(=O)Nc1cc2cccc(Cn3ccnc3C(=O)O)c2cn1 [Example 294, 1-[3-(3-ethyl-ureido)-isoquinolin-8-ylmethyl]-1H-imidazole-2-carboxylic acid] | 4 µg/mL (≈ 11.8 µM) | 
11 | CCNC(=O)Nc1cc2c(-c3cncc(F)c3)ccc(C)c2cn1 [Example 9, 1-ethyl-3-[5-(5-fluoro-pyridin-3-yl)-8-methyl-isoquinolin-3-yl]-urea] | 2 µg/mL (≈ 6.17 µM) | 
12 | CCNC(=O)Nc1cc2c(-c3cccnc3)ccc(C)c2cn1 [Example 50, 1-ethyl-3-(8-methyl-5-pyridin-3-yl-isoquinolin-3-yl)-urea] | 8 µg/mL (≈ 26.1 µM) | 
13 | CCNC(=O)Nc1cc2c(-c3ccc(S(N)(=O)=O)cc3)ccc(C)c2cn1 [Example 35, 4-[3-(3-ethyl-ureido)-8-methyl-isoquinolin-5-yl]-benzenesulfonamide] | 0.5 µg/mL (≈ 1.3 µM) | 
14 | CCNC(=O)Nc1cc2c(-c3ccc4nccn4c3)ccc(C)c2cn1 [Example 7, 1-ethyl-3-(5-imidazo[1,2-a]pyridin-6-yl-8-methyl-isoquinolin-3-yl)-urea] | 4 µg/mL (≈ 11.6 µM) | 
15 | CCNC(=O)Nc1cc2c(-c3cnn(C)c3)ccc(C)c2cn1.Cl [Example 284, 1-ethyl-3-[8-methyl-5-(1-methyl-1H-pyrazol-4-yl)-isoquinolin-3-yl]-urea hydrochloride] | 4 µg/mL | 
16 | CCNC(=O)Nc1cc2c(-c3ccc(O)cc3)ccc(C)c2cn1 [Example 2, 1-ethyl-3-[5-(4-hydroxy-phenyl)-8-methyl-isoquinolin-3-yl]-urea] | 2 µg/mL (≈ 6.22 µM) | 
17 | CCCNc1cc(C)c2cnc(NC(=O)NCC)cc2c1 [Example 115, 1-ethyl-3-(8-methyl-6-propylamino-isoquinolin-3-yl)-urea] | 4 µg/mL (≈ 14 µM) | 

Row | SMILES | MIC | MIC for S. pneumoniae ATCC 49619 (cation-adjusted Mueller-Hinton Broth supplemented with 3% (v/v) lysed horse blood)
18 | CCNC(=O)Nc1cc2cccc(Cn3cccn3)c2cn1 [Example 295, 1-ethyl-3-(8-pyrazol-1-ylmethyl-isoquinolin-3-yl)-urea] | 8 µg/mL (≈ 27.1 µM) | 
19 | CCNC(=O)Nc1cc2cc(NCc3ccccc3)cc(C)c2cn1 [Example 58, 1-(6-benzylamino-8-methyl-isoquinolin-3-yl)-3-ethyl-urea] | 8 µg/mL (≈ 23.9 µM) | 
20 | CCNC(=O)Nc1cc2cccc(Nc3cccc(C(=O)OC)n3)c2cn1.Cl [Example 166, 6-[3-(3-ethyl-ureido)-isoquinolin-8-ylamino]-pyridine-2-carboxylic acid methyl ester hydrochloride] | 8 µg/mL | 
21 | CCNC(=O)Nc1cc2cccc(Nc3cccc(OC)n3)c2cn1 [Example 178, 1-ethyl-3-[8-(6-methoxy-pyridin-2-ylamino)-isoquinolin-3-yl]-urea] | 2 µg/mL (≈ 5.93 µM) | 
22 | CCNC(=O)Nc1cc2cc(NCc3ccc(OCC(N)=O)cc3)cc(C)c2cn1 [Example 186, 2-(4-{[3-(3-ethyl-ureido)-8-methyl-isoquinolin-6-ylamino]-methyl}-phenoxy)-acetamide] | 8 µg/mL (≈ 19.6 µM) | 
23 | CCNC(=O)Nc1cc2cccc(Nc3ccn4ccnc4c3)c2cn1 [Example 150, 1-ethyl-3-[8-(imidazo[1,2-a]pyridin-7-ylamino)-isoquinolin-3-yl]-urea] | 4 µg/mL (≈ 11.5 µM) | 
24 | CCNC(=O)Nc1cc2cc(C(NC(C)=O)c3ccccc3)cc(C)c2cn1 (stereo not shown) [Example 17, N-{1-[3-(3-ethyl-ureido)-8-methyl-isoquinolin-6-yl]-benzyl}-acetamide] |  | 1 µg/mL
25 | CCNC(=O)Nc1cc2c(N3CCOCC3)ccc(Nc3cccnc3)c2cn1 [Example 274, 1-ethyl-3-[5-morpholin-4-yl-8-(pyridin-3-ylamino)-isoquinolin-3-yl]-urea] | 2 µg/mL (≈ 5.1 µM) | 
26 | CCNC(=O)Nc1cc2cccc(Nc3ccc(CC(=O)N(C)C)cc3)c2cn1.Cl [Example 206, 2-{4-[3-(3-ethyl-ureido)-isoquinolin-8-ylamino]phenyl}-N,N-dimethyl-acetamide hydrochloride] | 4 µg/mL | 
27 | CCNC(=O)Nc1cc2cc(-c3cccnc3F)cc(C)c2cn1 [Example 100, 1-ethyl-3-[6-(2-fluoro-pyridin-3-yl)-8-methyl-isoquinolin-3-yl]-urea] | 2 µg/mL (≈ 6.17 µM) | 
28 | CCNC(=O)Nc1cc2cc(NCC(C)C)cc(C)c2cn1.Cl [Example 136, 1-ethyl-3-(6-isobutylamino-8-methyl-isoquinolin-3-yl)-urea hydrochloride] | 16 µg/mL | 
29 | CCNC(=O)Nc1cc2cc(-c3ccc(S(N)(=O)=O)cc3)cc(C)c2cn1 [Example 38, 4-[3-(3-ethyl-ureido)-8-methyl-isoquinolin-6-yl]-benzenesulfonamide] | 1 µg/mL (≈ 2.6 µM) | 
30 | CCNC(=O)Nc1cc2cc(NCC3CC3)cc(C)c2cn1.Cl [Example 133, 1-{6-[(cyclopropylmethyl)-amino]-8-methyl-isoquinolin-3-yl}-3-ethyl-urea hydrochloride] | 16 µg/mL | 
31 | CCNC(=O)Nc1cc2cc(-c3ccc(CO)cc3)cc(C)c2cn1 [Example 15, 1-ethyl-3-[6-(4-hydroxymethyl-phenyl)-8-methyl-isoquinolin-3-yl]-urea] | 0.5 µg/mL (≈ 1.49 µM) | 
32 | CCNC(=O)Nc1cc2cc(NCc3ccc(-n4cnc(C)n4)cc3)cc(C)c2cn1.Cl [Example 131, 1-ethyl-3-{8-methyl-6-[4-(3-methyl-[1,2,4]triazol-1-yl)-benzylamino]-isoquinolin-3-yl}-urea hydrochloride] | 4 µg/mL | 
33 | C=Cc1ccc(-c2ccncc2)c2cc(NC(=O)NCC)ncc12 [Example 140, 1-ethyl-3-[5-(pyridin-4-yl)-8-vinylisoquinolin-3-yl]-urea] | 2 µg/mL (≈ 6.28 µM) | 
34 | CCNC(=O)Nc1cc2cccc(Nc3ccc(CC(N)=O)cc3)c2cn1.Cl [Example 253, 2-{4-[3-(3-ethyl-ureido)-isoquinolin-8-ylamino]-phenyl}-acetamide hydrochloride] | 4 µg/mL | 
